Patent publication US5244916A, “Inhibition of respiratory burst using posttranslational modification inhibitors” (The Scripps Research Institute, priority 1992, dated 1993)

What was measured:
Format in all cases: cell-based
[1] = test system: HL-60 cells (NADPH oxidase / respiratory burst); assay: Prevention of compactin-inhibition of FMLP-stimulated O2- formation in HL-60 cells by mevalonic acid and other supplements
Procedure: HL-60 cells were maintained in stationary culture in RPMI 1640 medium (Gibco, Grand Island, NY) containing 10% fetal bovine serum at 37° C in an atmosphere of 95 air and 5% CO2. The cells (about 8×10^5 /ml) were differentiated into neutrophil-like cells by treatment with 1.3% DMSO for six days (Harris, et al., J. Leukocyte Biol. 37: 407-422 (1985)). The cells were treated with the indicated levels of compactin or lovastatin by addition of a 1,000-fold concentrated stock solution to the appropriate concentration on day 4 of differentiation. […] In studies of the protective effect of mevalonic acid, the compound was added as the mevalonolactone (Sigma Chemical Co., St. Louis, MO) at a concentration of 1 mM to the cell culture on days 4 to 6. Similarly, cholesterol was added in the form of LDL prepared according to the method of Curtiss and Edgington (Curtiss, et al., J. Biol. Chem. 257: 15213-15221 (1991)) at a final concentration of 50 μg/ml; ubiquinone (Sigma Chemical Co., St. Louis, MO) was added as Coenzyme Q-10 at a final concentration of 0.5 mM; and dolichol (Sigma Chemical Co., St. Louis, MO) was added as a dispersion in phosphatidylcholine at a final concentration of 0.5 mM (Cutts, et al., J. Cell Physiol. 139: 550-555 (1989)).
O2 --formation by HL-60 cells was assessed by the SOD-sensitive reduction of cytochrome c. Cells were suspended at 1×10^7 /ml in Krebs-Ringer Hepes buffer with 5.5 mM glucose (KRHG) and 50-100μl of cells were added to a cuvette containing 100 μM cytochrome c (type III, Sigma Chemical Co., St. Louis, MO), ±300 μg/ml SOD (Sigma Chemical Co., St. Louis, MO) in 700-750 μl KRHG. Cytochalasin b (Sigma Chemical Co., St. Louis, MO) was added to a final concentration of 5 μg/ml, and the cells were incubated at 37° C. for five minutes while a stable baseline at a wavelength of 550 nm was obtained. O2 --formation was initiated by the addition of 1 μM N-formylmethionylleucylphenylalanine (FMLP; Sigma Chemical Co., St. Louis, MO) or 1μg/ml phorbol myristate acetate (PMA; Sigma Chemical Co., St. Louis, MO). Cytochrome c reduction at 550nm was continuously monitored and maximal rate and extent of the reaction calculated.
Inhibition of protein isoprenylation can interfere with LMWG function without inhibiting overall cellular function (Maltese, supra (1990)). Since compactin inhibits at the enzymatic step preceding mevalonic acid synthesis, one should be able to reverse effects of compactin due specifically to inhibition of this pathway by addition of exogenous mevalonic acid.

[2] = test system: cytochrome b558; assay: Cytochrome b558 levels in HL-60 cells by Western blot; details: 10 μM compactin
[3] = test system: Rap1; assay: Metabolic labeling and immune precipitation of processed and unprocessed Rap1 in HL-60 cells; details: various concentrations
Procedure: Analysis of Rapl processing in HL-60 cells was performed by labeling cells (8×10^5 /ml) with 200μCi/ml ^35 S-Trans-label (ICN Biomedicals, Inc., Costa Mesa, CA) for 5 days during cell differentiation with 1.3% DMSO in Cys-Met-free medium containing 12% dialyzed fetal bovine serum. Various concentrations of compactin were included as indicated. Metabolically labeled cells were collected, washed once with isotonic NaCl, treated with 2.5 mM Hepes pH 7.5, 100 mM NaCl, 1 mM EDTA, 1 % Triton X-100, 2.5 μM PMSF, and 100U aprotonin. After a 15-minute incubation on ice, the cell lysates were pelleted in a microfuge for 2 minutes and then the supernatant was transferred to clean tubes containing 100 μl 4M NaCl, 5 μl 10% SDS, and 50 μl10% deoxycholate. The samples were boiled for two minutes, pelleted, and transferred to clean tubes containing 2 μl of the primary antibody, 142-24E05 (Chesa, et al., PNAS USA 84: 3234-3238 (1987); Bokoch, et al., J. Biol. Chem. 263: 16744-16749 (1988)). […]
In untreated cells, Rapl was present largely in the membrane fraction, with very little Rapl in the cytosol. […] Isoprenylation of Rapl was also assessed by metabolic labeling of the HL-60 cells with immune precipitation of Rap1, and analysis of the 22kD processed and 23kD unprocessed forms of Rap1 (Buss, et al., Mol. Cell, Biol. 11: 1523-1527 (1991)).

[4] = test system: HL-60 cells; assay: HL-60 differentiation after DMSO (N-formyl peptide receptor and CD14 markers); details: concentrations of the studies
Procedure: Cell viability was determined by uptake of propidium iodide (537-059; Calbiochem-Behring Corp., La Jolla, CA), detected from the emission fluorescence at 625/35 nm using a DM560 dichronic mirror (Krishan, J. Cell. Biol. 66: 188-192 (1975)). Expression of N-formyl peptide receptor was determined using fluorescein-labeled N-CHONle-Leu-Phe-Nle-Tyr-Lys (Molecular Probes, Inc., Eugene, OR) essentially by the method of Sklar and Finney (Sklar and Finney, Cytometry 3: 161-165 (1982)). Specificity of ligand binding was determined in the presence of 4 mM unlabeled T-boc peptide. CD14 expression was determined using monoclonal antibody 3C10 at a dilution of 1:1,000 (see Goyert and Ferrero, in Leucocyte Typing III: White Cell Differentiation Antigens, McMichael, ed., Oxford Univ. Press, NY, pp. 613-619 (1988)), with detection using a fluorescein-labeled secondary antibody. Flow cytometric analyses were performed on a FACSIV (registered trademark of Becton-Dickinson, San Jose, CA) equipped with a 2W argon laser (Coherent Inc., Palo Alto, collected in list mode and analyzed using the Consort 30 program (Becton-Dickinson, San Jose, CA) after collecting 10,000 events.
HL-60 differentiation was assessed using two distinct markers: appearance of N-formyl peptide receptors and appearance of the CD14 antigen.

[5] = 4 μM compactin + 1 mM mevalonate
[6] = 10 μM compactin + 50 μg/ml cholesterol, n = 2
[7] = 10 μM compactin + 1 mM mevalonate

Structure (SMILES): CC[C@H](C)C(=O)O[C@H]1CCC=C2C=C[C@H](C)[C@H](CC[C@@H]3C[C@@H](O)CC(=O)O3)[C@H]21 [compactin]
- FMLP-stimulated O2- formation, Extent ([1]; 4 μM compactin): 28 ± 3.5 % of control
- FMLP-stimulated O2- formation, Rate ([1]; 4 μM compactin): 43 ± 5.0 % of control
- FMLP-stimulated O2- formation, Extent [1, 5]: 96 ± 8.0 % of control
- FMLP-stimulated O2- formation, Rate [1, 5]: 97 ± 4.0 % of control
- FMLP-stimulated O2- formation, Extent ([1]; 10 μM compactin): 13 ± 0.4 % of control
- FMLP-stimulated O2- formation, Rate ([1]; 10 μM compactin): 19 ± 3.9 % of control
- FMLP-stimulated O2- formation, Extent [1, 6]: 22 % of control
- FMLP-stimulated O2- formation, Rate [1, 6]: 28 % of control
- FMLP-stimulated O2- formation, Extent [1, 7]: 114 ± 1.6 % of control
- FMLP-stimulated O2- formation, Rate [1, 7]: 115 ± 7.6 % of control
- expression of cytochrome b558 [2]: normal
- 22 kD processed form of Rap1 [3]: dose-dependent decrease
- 23 kD unprocessed form of Rap1 [3]: proportional increase
- ability of HL-60 cells to differentiate normally upon exposure to DMSO [4]: neither was the ability of these cells to differentiate normally
